Results from PubChem BioAssay AID1918941 (Molecular Pharmacology Branch, DTP, NCI, 2023).

System: SW 1271 complex spheroids, viability
Assay: Anticancer human tumor SW 1271 cell line growth inhibition [LSD1];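 also: spheroids exposed to agents for 7 days before luminescence read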;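 as to viability, T/C: 100% = DMSO vehicle control viability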
Conditions: for viability, T/C: stronger effect = lower value
Excerpt: Multicellular complex tumor spheroid response to LSD1 Inhibitor Iadademstat in combination with a variety of drugs and investigational agents in selected tumor cell lines
The current study was undertaken to assess response to LSD1 inhibitors in combination with standard-of-care drugs and investigational agents in solid tumor complex spheroid models as well as in the K-562 leukemia. Complex spheroids include a stromal component modeled by human endothelial cells (HUVEC) and fibroblasts modeled by human mesenchymal stem cells (MSCs). The concentration ranges selected for each drug and investigational agent were based upon clinically achievable concentrations if the clinical Cmax of the agent was known.
Compounds. The drugs and investigational agents used in this study are listed on Table 1. All of the agents used, including staurosporine (NSC755774) and gemcitabine (NSC613327), were obtained from the Developmental Therapeutics Program, NCI. FDA-approved anticancer drugs are available from the NCI at http://dtp.nci.nih.gov/branches/dscb/oncology_drugset_explanation.html. Drugs and investigational agents were >95% pure by proton nuclear magnetic resonance (NMR) and liquid chromatography/mass spectrometry (LC/MS). Stock solutions were prepared at 400x in DMSO, stored at -70 degrees C, and diluted in fresh medium prior to their use. The final concentration of DMSO in cell culture wells never exceeded 0.25% (v/v). The FDA-approved anticancer drug set is available from the Developmental Therapeutics Program at https://dtp.cancer.gov/organization/dscb/obtaining/available_plates.htm. All drugs and investigational agents were tested over a range starting from a high concentration at or near the clinical Cmax and decreasing in half-log increments. If the clinical Cmax for an agent had not been determined, the highest concentration tested was 10 microM.
Cell Lines. The patient-derived cancer cell (PDC) lines: 292921-168-R-J2-PDC, K24384-001-R-PDC, and 521955-158-R2-J5-PDC pancreatic carcinomas, 556581-035-R-J1 ovarian carcinoma, 324938-238-R-J1-PDC, 855422-203-R-J1-PDC and 883617-216-R-J1-PDC urothelial bladder carcinomas, 743489-274-T-PDC renal cell carcinoma, 138582-R-J1 Merkel cell tumor, K60290-347-R-J1 and K57222-313-R-J1-PDC glioblastomas, 653999-131-R-J2-PDC, LG0703-F948-PDC, and 349418-098-R-PDC non-small cell lung carcinomas, 885512-296-R-J2-PDC, 171881-019-R-J1-PDC breast carcinomas and 186277-243-T-J2-PDC and 233499-124-R-J2-PDC colon carcinomas were obtained from the NCI Patient-Derived Models Repository (PDMR, https://pdmr.cancer.gov). The established cell lines NCI/ADR-RES (RRID:CVCL_14520 and OVCAR-5 (RRID:CVCL_1628) ovarian carcinomas, 786-O (RRID:CVCL_1051) and A498 (RRID:CVCL_A498) renal cell carcinoma, NCI-H211 (ATCC, cat. CRL-5824; RRID:CVCL_1529), NCI-H196 (ATCC, cat. CRL-5823, RRID:CVCL_1509), SW 1271 (ATCC, cat. CRL-2177, RRID:CVCL_1716) and NCI-H1876 (ATCC, cat. CRL-5902, RRID:CVCL_1503) small cell lung carcinomas, MDA-MB-231 (RRID:CVCL_0062) and MDA-MB-468 (RRID:CVCL_0419)breast carcinomas (10-12). Pooled donor human umbilical vein endothelial cells (HUVEC, Lonza, cat. CC-2519) and human mesenchymal stem cells (hMSC, Lonza, cat. PT-2501) were purchased from Lonza (Walkersville, MD).
Cell Culture. All cells were maintained in an incubator at 37 degrees C and 5% CO2 with 95% humidity. The PDC lines were cultured according to standard operating procedures established by the NCI PDMR (https://pdmr.cancer.gov). Briefly all PDCs were thawed and cultured in Matrigel-coated flasks prepared with a working solution of 1X Ham's F-12 nutrient mix, without supplementation (Invitrogen, Waltham, MA, cat. 11765054), 100 U/mL penicillin-streptomycin (Invitrogen, cat. 15140122), and 2.5% Matrigel (Corning Inc., Corning, NY, cat. 354248) for the first three passages. […]

[1] = curve of first compound, second compound 0.1 µM
[2] = curve of first compound, second compound 0.316 µM
[3] = curve of first compound, second compound 1 µM
[4] = curve of first compound, second compound 3.16 µM
[5] = curve of first compound, second compound 10 µM
[6] = second compound 0.1 µM, first compound 0.00949 µM
[7] = second compound 0.1 µM, first compound 0.03 µM
[8] = second compound 0.1 µM, first compound 0.0949 µM
[9] = second compound 0.1 µM, first compound 0.3 µM
[10] = second compound 0.1 µM, first compound 0.949 µM
[11] = second compound 0.1 µM, first compound 3 µM
[12] = second compound 0.316 µM, first compound 0.00949 µM
[13] = second compound 0.316 µM, first compound 0.03 µM
[14] = second compound 0.316 µM, first compound 0.0949 µM
[15] = second compound 0.316 µM, first compound 0.3 µM
[16] = second compound 0.316 µM, first compound 0.949 µM
[17] = second compound 0.316 µM, first compound 3 µM
[18] = second compound 1 µM, first compound 0.00949 µM
[19] = second compound 1 µM, first compound 0.03 µM
[20] = second compound 1 µM, first compound 0.0949 µM
[21] = second compound 1 µM, first compound 0.3 µM
[22] = second compound 1 µM, first compound 0.949 µM
[23] = second compound 1 µM, first compound 3 µM
[24] = second compound 3.16 µM, first compound 0.00949 µM
[25] = second compound 3.16 µM, first compound 0.03 µM
[26] = second compound 3.16 µM, first compound 0.0949 µM
[27] = second compound 3.16 µM, first compound 0.3 µM
[28] = second compound 3.16 µM, first compound 0.949 µM
[29] = second compound 3.16 µM, first compound 3 µM
[30] = second compound 10 µM, first compound 0.00949 µM
[31] = second compound 10 µM, first compound 0.03 µM
[32] = second compound 10 µM, first compound 0.0949 µM
[33] = second compound 10 µM, first compound 0.3 µM
[34] = second compound 10 µM, first compound 0.949 µM
[35] = second compound 10 µM, first compound 3 µM

Q: For `O=C(C=Cc1cccc(S(=O)(=O)Nc2ccccc2)c1)NO` + NC1CCC(NC2CC2c2ccccc2)CC1, which IC50 [1] is on record?
A: The IC50 was 167 nM.

Q: And the IC50 [2]?
A: The IC50 was 122 nM.

Q: And the IC50 [3]?
A: The IC50 was 88.5 nM.

Q: What about the IC50 [4] of the same compound?
A: The IC50 was 606 nM.

Q: What about the IC50 [5] of the same compound?
A: The IC50 was 84.7 nM.

Q: And the viability, T/C [6]?
A: Its viability, T/C is 72.1%.

Q: And the viability, T/C [7]?
A: Its viability, T/C is 72.1%.

Q: What about the viability, T/C [8] of the same compound?
A: The viability, T/C was 57.9%.

Q: And the viability, T/C [9]?
A: Its viability, T/C is 22.7%.

Q: And the viability, T/C [10]?
A: The viability, T/C was 6.87%.

Q: And the viability, T/C [11]?
A: Its viability, T/C is 96%.

Q: And the viability, T/C [12]?
A: Its viability, T/C is 88.8%.

Q: And the viability, T/C [13]?
A: Its viability, T/C is 69.8%.

Q: And the viability, T/C [14]?
A: The viability, T/C was 61.9%.

Q: And the viability, T/C [15]?
A: The viability, T/C was 18.5%.

Q: What about the viability, T/C [16] of the same compound?
A: Its viability, T/C is 7.13%.

Q: What about the viability, T/C [17] of the same compound?
A: The viability, T/C was 97.9%.

Q: What about the viability, T/C [18] of the same compound?
A: Its viability, T/C is 78.8%.

Q: And the viability, T/C [19]?
A: Its viability, T/C is 68.8%.

Q: And the viability, T/C [20]?
A: Its viability, T/C is 52.4%.

Q: And the viability, T/C [21]?
A: Its viability, T/C is 19.1%.

Q: And the viability, T/C [22]?
A: The viability, T/C was 8.74%.

Q: What about the viability, T/C [23] of the same compound?
A: Its viability, T/C is 102%.

Q: And the viability, T/C [24]?
A: Its viability, T/C is 88.6%.

Q: What about the viability, T/C [25] of the same compound?
A: The viability, T/C was 72.9%.

Q: What about the viability, T/C [26] of the same compound?
A: The viability, T/C was 56.1%.

Q: What about the viability, T/C [27] of the same compound?
A: The viability, T/C was 26.4%.

Q: What about the viability, T/C [28] of the same compound?
A: Its viability, T/C is 6.99%.

Q: What about the viability, T/C [29] of the same compound?
A: Its viability, T/C is 108%.

Q: What about the viability, T/C [30] of the same compound?
A: The viability, T/C was 85.3%.

Q: What about the viability, T/C [31] of the same compound?
A: The viability, T/C was 75.7%.

Q: And the viability, T/C [32]?
A: Its viability, T/C is 48.8%.

Q: And the viability, T/C [33]?
A: The viability, T/C was 22.1%.

Q: And the viability, T/C [34]?
A: The viability, T/C was 7.93%.

Q: And the viability, T/C [35]?
A: The viability, T/C was 98.2%.

Q: With `CCN(c1cc(-c2ccc(CN3CCOCC3)cc2)cc(C(=O)NCc2c(C)cc(C)[nH]c2=O)c1C)C1CCOCC1` + NC1CC1c1ccc(-c2cccc(O)c2)cc1 as the compound, how does the IC50 [1] read?
A: Its IC50 is over 3000 nM.

Q: And the IC50 [2]?
A: Its IC50 is over 3000 nM.

Q: What about the IC50 [3] of the same compound?
A: Its IC50 is over 3000 nM.

Q: What about the IC50 [4] of the same compound?
A: The IC50 was over 3000 nM.

Q: What about the IC50 [5] of the same compound?
A: Its IC50 is over 3000 nM.

Q: And the viability, T/C [6]?
A: The viability, T/C was 83.2%.

Q: What about the viability, T/C [7] of the same compound?
A: Its viability, T/C is 82.9%.

Q: And the viability, T/C [8]?
A: The viability, T/C was 86%.

Q: What about the viability, T/C [9] of the same compound?
A: The viability, T/C was 72.4%.

Q: What about the viability, T/C [10] of the same compound?
A: The viability, T/C was 68.2%.

Q: What about the viability, T/C [11] of the same compound?
A: The viability, T/C was 60%.

Q: What about the viability, T/C [12] of the same compound?
A: The viability, T/C was 83.9%.

Q: And the viability, T/C [13]?
A: Its viability, T/C is 82.2%.

Q: What about the viability, T/C [14] of the same compound?
A: The viability, T/C was 74.6%.

Q: What about the viability, T/C [15] of the same compound?
A: Its viability, T/C is 72.4%.

Q: And the viability, T/C [16]?
A: Its viability, T/C is 71.3%.

Q: What about the viability, T/C [17] of the same compound?
A: The viability, T/C was 57.3%.

Q: What about the viability, T/C [18] of the same compound?
A: The viability, T/C was 82.1%.

Q: What about the viability, T/C [19] of the same compound?
A: Its viability, T/C is 78.4%.

Q: What about the viability, T/C [20] of the same compound?
A: Its viability, T/C is 83.8%.

Q: What about the viability, T/C [21] of the same compound?
A: The viability, T/C was 64.8%.

Q: What about the viability, T/C [22] of the same compound?
A: Its viability, T/C is 59.4%.

Q: And the viability, T/C [23]?
A: Its viability, T/C is 56.3%.

Q: What about the viability, T/C [24] of the same compound?
A: Its viability, T/C is 80.6%.

Q: And the viability, T/C [25]?
A: The viability, T/C was 85.1%.

Q: What about the viability, T/C [26] of the same compound?
A: Its viability, T/C is 78.1%.

Q: What about the viability, T/C [27] of the same compound?
A: Its viability, T/C is 65.7%.

Q: And the viability, T/C [28]?
A: Its viability, T/C is 63.7%.

Q: And the viability, T/C [29]?
A: Its viability, T/C is 56.2%.

Q: And the viability, T/C [30]?
A: Its viability, T/C is 66.9%.

Q: What about the viability, T/C [31] of the same compound?
A: The viability, T/C was 66.8%.

Q: And the viability, T/C [32]?
A: Its viability, T/C is 64.8%.

Q: What about the viability, T/C [33] of the same compound?
A: Its viability, T/C is 51.8%.

Q: What about the viability, T/C [34] of the same compound?
A: The viability, T/C was 58.7%.

Q: What about the viability, T/C [35] of the same compound?
A: The viability, T/C was 58.2%.

Q: Which results are given for `NC1CC1c1ccc(-c2cccc(O)c2)cc1` (stereo not drawn)?
A: viability, T/C (compound 0.1 µM): 86.2%; viability, T/C (compound 10 µM): 63.2% [middle of 25 runs]; IC50 (compound alone, run of 02/21/2022): > 10000 nM
